# From patent US4642314A, “Antiulcer compounds” (Nisshin Flour Milling Co., Ltd., priority 1984, dated 1987)
# What was measured:
# [1] = system: acetic acid-induced ulcer; experiment: Acetic acid-induced ulcer (Curative test); assay type: in vivo, rat (male SD rats); details: Table 2; rat, 0.05 ml of 15% acetic acid underneath the serosa; lesion area on 14th day
# Procedure: (§1) In the case of reserpine-induced ulcer, the assay was performed according to the description in "Arch. Int. Pharmacodym. Ther. 147,113 (1964)", and in the case of acetic acid-induced ulcer, the assay was performed according to the method described in "Jap. J. Pharmac. 19,418 (1969)", by inducing experimental ulcer in rat and evaluating the effect thereon of the compounds tested.
# Groups of rats, each consisting of 6 male SD rats weighing 150-200 g were used. The stomach of ether-anesthesized rat was exposed and while taking acre not to injure blood vessels, 0.05 ml of 15% aqueous acetic acid solution was injected underneath the serosa. On the 14th day, the rats were killed with chloroform, the stomach taken out and the area of the infected lesion measured.
# The curative ratio was calculated using the above equation: [formula]
# [2] = acute toxicity (LD50), intraperitoneal route in mice; assay type: in vivo; details: mouse, in vivo, ip
# [3] = system: reserpine-induced ulcer; experiment: Reserpine-induced ulcer (Preventive test); assay type: in vivo, rat (male SD rats); details: Table 1; rat, 100 mg/kg oral, 30 min before reserpine 15 mg/kg i.p.; evaluated at 18 h; read-out: Preventive effect (preventive ratio)
# Procedure: as §1
# Groups of rats, each consisting of 6 male SD rats weighing 150-200 g were used. After 24 hours' fasting, a sample compound was orally administered to the rat at the dose of 100 mg/kg body weight, and 30 minutes after the administration, reserpine was intraperitoneally injected at the dose of 15 mg/kg body weight. Eighteen hours after the administration, the rats were killed with chloroform. The stomach was taken out, and severity of the hemorrhaging lesion was evaluated according to the method as above ("Arch. Int. Pharmacodym. Ther. 147,113 (1964)).
# The preventive ratio was calculated using the following equation, [formula] wherein the control animals were intraperitoneally given reserpine only, at the dose of 15 mg/kg body weight.
Structure (SMILES),Curative effect (curative ratio) [1],LD50 ([2]; Table 2),inhibition in vivo at 100 mg/kg [3],LD50 ([2]; Table 1)
CC(C)=CCCC(C)=CCCC(C)=CCCC(C)=CCCC(C)=CCCC(C)=CCCC(C)=CCCC(C)=CCCC(C)=CCCC(C)=CCO [Decaprenol],+++ (40%-),> 4000 mg/kg,–,–
CCCCCCCC/C=C/CCCCCCCCCCCC(=O)OCC=C(C)CCC=C(C)CCC=C(C)CCC=C(C)CCC=C(C)CCC=C(C)CCC=C(C)CCC=C(C)CCC=C(C)CCC=C(C)C [Decaprenyl brassidate],++ (25%-40%),> 4000 mg/kg,–,–
CCCCCCCC/C=C/CCCCCCCC(=O)OCC=C(C)CCC=C(C)CCC=C(C)CCC=C(C)CCC=C(C)CCC=C(C)CCC=C(C)CCC=C(C)CCC=C(C)CCC=C(C)C [Decaprenyl elaidate],–,–,10 to 40%,> 5000 mg/kg
CC(C)=CCCC(C)=CCCC(C)=CCCC(=O)OCC=C(C)CCC=C(C)CCC=C(C)CCC=C(C)CCC=C(C)CCC=C(C)CCC=C(C)CCC=C(C)CCC=C(C)CCC=C(C)C [Decaprenyl farnesylacetate],+ (10%-25%),> 5000 mg/kg,–,–
CC(C)=CCCC(C)=CCCC(=O)OCC=C(C)CCC=C(C)CCC=C(C)CCC=C(C)CCC=C(C)CCC=C(C)CCC=C(C)CCC=C(C)CCC=C(C)CCC=C(C)C [Decaprenyl geranylacetate],+ (10%-25%),> 5000 mg/kg,–,–
CCCCCCCCCCC/C=C\CCCCC(=O)OCC=C(C)CCC=C(C)CCC=C(C)CCC=C(C)CCC=C(C)CCC=C(C)CCC=C(C)CCC=C(C)CCC=C(C)CCC=C(C)C [Decaprenyl petroselinate],++ (25%-40%),> 4000 mg/kg,–,–
CC(C)=CCCC(C)=CCCC(C)=CCCC(C)=CCCC(C)=CCCC(C)=CCCC(C)=CCCC(C)=CCCC(C)=CCCC(=O)OCC=C(C)CCC=C(C)CCC=C(C)CCC=C(C)CCC=C(C)CCC=C(C)CCC=C(C)CCC=C(C)CCC=C(C)CCC=C(C)C [Decaprenyl solanesylacetate],+ (10%-25%),> 5000 mg/kg,–,–
CCCCCCCC/C=C\CCCCCCCC(=O)OCCC(C)CCCC(C)CCCC(C)CCCC(C)C (stereo not shown) [Dihydrophytyl oleate],–,–,10 to 40%,> 4000 mg/kg
CCCCCCCCCCCCCCCCCC(=O)OCCC(C)CCCC(C)CCCC(C)CCCC(C)C (stereo not shown) [Dihydrophytyl stearate],–,–,10 to 40%,> 4000 mg/kg
CCOC(=O)CCC=C(C)CCC=C(C)CCC=C(C)CCC=C(C)CCC=C(C)CCC=C(C)CCC=C(C)CCC=C(C)CCC=C(C)CCC=C(C)C [Ethyl decaprenylacetate],+++ (40%-),> 4000 mg/kg,–,–
CCOC(=O)CCC=C(C)CCC=C(C)CCC=C(C)CCC=C(C)CCC=C(C)CCC=C(C)CCC=C(C)CCC=C(C)CCC=C(C)C [Ethyl solanesylacetate],++ (25%-40%),> 4000 mg/kg,–,–
CC(C)=CCCC(C)=CCCC(C)=CCCC(C)=CCCC(C)=CCCC(C)=CCCC(C)=CCCC(C)=CCCC(C)=CCCC(C)=CCCC(=O)OCCC(C)C [Isoamyl decaprenylacetate],+ (10%-25%),> 4000 mg/kg,–,–
CC(C)=CCCC(C)=CCCC(C)=CCCC(C)=CCCC(C)=CCCC(C)=CCCC(C)=CCCC(C)=CCCC(C)=CCCC(C)=CCCC(=O)OC(C)C [Isopropyl decaprenylacetate],+ (10%-25%),> 4000 mg/kg,–,–
C/C(=C\CCC(=O)OC(C)C)CCC[C@H](C)CCC[C@H](C)CCCC(C)C [Isopropyl phytylacetate],–,–,10 to 40%,> 5000 mg/kg
COC(=O)CCC=C(C)CCC=C(C)CCC=C(C)CCC=C(C)CCC=C(C)CCC=C(C)CCC=C(C)CCC=C(C)CCC=C(C)CCC=C(C)C [Methyl decaprenylacetate],++ (25%-40%),> 4000 mg/kg,–,–
"COC(=O)CC/C=C(\C)CCC[C@H](C)CCC[C@H](C)CCCC(C)C [Methyl phytlacetate, Methyl phytylacetate]",–,–,10 to 40%,> 5000 mg/kg
COC(=O)CCC=C(C)CCC=C(C)CCC=C(C)CCC=C(C)CCC=C(C)CCC=C(C)CCC=C(C)CCC=C(C)CCC=C(C)C [Methyl solanesylacetate],++ (25%-40%),> 4000 mg/kg,–,–
"CCCCCCCCC1OC1CCCCCCCC(=O)OC/C=C(\C)CCC[C@H](C)CCC[C@H](C)CCCC(C)C (stereo partly shown) [Phytyl 9,10-epoxystearate]",+ (10%-25%),> 5000 mg/kg,–,–
CC(C)=CCCC(C)CCCC(=O)OC/C=C(\C)CCC[C@H](C)CCC[C@H](C)CCCC(C)C (stereo partly shown) [Phytyl citronellylacetate],–,–,10 to 40%,> 5000 mg/kg

Structure (SMILES),Curative effect (curative ratio) [1],LD50 ([2]; Table 2),inhibition in vivo at 100 mg/kg [3],LD50 ([2]; Table 1)
CCCCCCCC/C=C/CCCCCCCC(=O)OC/C=C(\C)CCC[C@H](C)CCC[C@H](C)CCCC(C)C [Phytyl elaidate],+ (10%-25%),> 4000 mg/kg,–,–
CCCCCCCC/C=C\CCCCCCCCCCCC(=O)OC/C=C(\C)CCC[C@H](C)CCC[C@H](C)CCCC(C)C [Phytyl erucate],–,–,10 to 40%,> 4000 mg/kg
CC(C)=CCCC(C)=CCCC(C)=CCCC(=O)OC/C=C(\C)CCC[C@H](C)CCC[C@H](C)CCCC(C)C [Phytyl farnesylacetate],–,–,10 to 40%,> 5000 mg/kg
CC(C)=CCC/C(C)=C/CCC(=O)OC/C=C(\C)CCC[C@H](C)CCC[C@H](C)CCCC(C)C [Phytyl geranylacetate],–,–,10 to 40%,> 5000 mg/kg
CCCCCCCCCCCC(=O)OC/C=C(\C)CCC[C@H](C)CCC[C@H](C)CCCC(C)C [Phytyl laurate],–,–,40 to 60%,> 5000 mg/kg
CCCCC/C=C\C/C=C\CCCCCCCC(=O)OC/C=C(\C)CCC[C@H](C)CCC[C@H](C)CCCC(C)C [Phytyl linoleate],+ (10%-25%),> 4000 mg/kg,–,–
CCCCCCCCCCCCCCCC(=O)OC/C=C(\C)CCC[C@H](C)CCC[C@H](C)CCCC(C)C [Phytyl palmitate],–,–,40 to 60%,> 5000 mg/kg
CCCCCCCCCCC/C=C\CCCCC(=O)OC/C=C(\C)CCC[C@H](C)CCC[C@H](C)CCCC(C)C [Phytyl petroselinate],++ (25%-40%),> 5000 mg/kg,–,–
C/C(=C\CCC(=O)OC/C=C(\C)CCC[C@H](C)CCC[C@H](C)CCCC(C)C)CCC[C@H](C)CCC[C@H](C)CCCC(C)C [Phytyl phytylacetate],–,–,40 to 60%,> 5000 mg/kg
CCCCCC[C@@H](O)C/C=C\CCCCCCCC(=O)OC/C=C(\C)CCC[C@H](C)CCC[C@H](C)CCCC(C)C [Phytyl ricinoleate],+ (10%-25%),> 5000 mg/kg,–,–
CCCCCCCCCCCCCCCCCC(=O)OC/C=C(\C)CCC[C@H](C)CCC[C@H](C)CCCC(C)C [Phytyl stearate],+ (10%-25%),> 4000 mg/kg,–,–
CC(=O)OCC=C(C)CCC=C(C)CCC=C(C)CCC=C(C)CCC=C(C)CCC=C(C)CCC=C(C)CCC=C(C)CCC=C(C)C [Solanesyl acetate],–,–,40 to 60%,> 4000 mg/kg
CC(C)=CCCC(C)=CCCC(C)=CCCC(C)=CCCC(C)=CCCC(C)=CCCC(C)=CCCC(C)=CCCC(C)=CCCC(C)=CCCC(=O)OCC=C(C)CCC=C(C)CCC=C(C)CCC=C(C)CCC=C(C)CCC=C(C)CCC=C(C)CCC=C(C)CCC=C(C)C [Solanesyl decaprenylacetate],–,–,10 to 40%,> 4000 mg/kg
CC(C)=CCCC(C)=CCCC(C)=CCCC(=O)OCC=C(C)CCC=C(C)CCC=C(C)CCC=C(C)CCC=C(C)CCC=C(C)CCC=C(C)CCC=C(C)CCC=C(C)C [Solanesyl farnesylacetate],–,–,10 to 40%,> 4000 mg/kg
CC(C)=CCCC(C)=CCCC(=O)OCC=C(C)CCC=C(C)CCC=C(C)CCC=C(C)CCC=C(C)CCC=C(C)CCC=C(C)CCC=C(C)CCC=C(C)C [Solanesyl geranylacetate],+ (10%-25%),> 4000 mg/kg,–,–
CC(C)=CCCC(C)=CCCC(C)=CCCC(C)=CCCC(C)=CCCC(C)=CCCC(C)=CCCC(C)=CCCC(C)=CCOC(=O)CCC=C(C)CCCC(C)CCCC(C)CCCC(C)C (stereo not shown) [Solanesyl phytylacetate],–,–,10 to 40%,> 4000 mg/kg
CC(C)=CCCC(C)=CCCC(C)=CCCC(C)=CCCC(C)=CCCC(C)=CCCC(C)=CCCC(C)=CCCC(C)=CCCC(=O)OCC=C(C)CCC=C(C)CCC=C(C)CCC=C(C)CCC=C(C)CCC=C(C)CCC=C(C)CCC=C(C)CCC=C(C)C [Solanesyl solanesylacetate],–,–,10 to 40%,> 4000 mg/kg
CC(C)=CCCC(C)=CCCC(C)=CCCC(C)=CCCC(C)=CCCC(C)=CCCC(C)=CCCC(C)=CCCC(C)=CCCC(=O)O [Solanesylacetic acid],+ (10%-25%),> 4000 mg/kg,–,–
CC(C)=CCCC(C)CCCC(=O)Oc1c(C)c(C)c2c(c1C)CCC(C)(CCCC(C)CCCC(C)CCCC(C)C)O2 (stereo not drawn) [α-Tocopheryl citronellylacetate],–,–,> 60%,> 4000 mg/kg
